The record followed here is patent publication US8399682B2, “Substituted (pyrazolylcarbonyl)imidazolidinones and their use” (AiCuris GmbH & Co. KG, priority 2008, dated 2013).

One experiment concerns HIV-1NL4-3 wt. The experiment in a line: Light assay with wild-type HI reporter virus in MT4 7F2 cells. The format is cell-based. Conditions: Human immunodeficiency virus 1, 2% FCS. The protocol:
(§1) For the mixture for a 96-well MTP, 3 million MT4 7F2 cells are pelleted, suspended in 1 ml of RPMI 1640 medium without phenol red (Invitrogen, Karlsruhe, Germany)/10% FCS/10% AIM-V (Invitrogen, Karlsruhe, Germany) and incubated together with a suitable amount of the corresponding HIV-1NL4-3 reporter virus at 37° C. for 2 hours (pellet infection). Unadsorbed viruses are subsequently washed out with PBS, and the infected cells are pelleted again and suspended in 8 ml of RPMI 1640 medium without phenol red/2% or 10% FCS/10% AIM-V. 80 μl thereof are pipetted into each well of a white 96-well MTP with 20 μl of test substance in suitable dilution. To avoid edge effects, the wells on the edge of the MTP are not used for substance dilutions. The second vertical row of the MTP contains only infected cells (virus control) and the eleventh vertical row only uninfected cells (cell control), in each case in RPMI 1640 medium without phenol red/2% or 10% FCS/10% AIM-V. The other wells of the MTP contain the compounds of the invention in various concentrations starting from the third vertical row, from which the test substances are diluted in 3-fold steps up to the tenth vertical row 3^7-fold. The test substances are dissolved in DMSO, whereby the final DMSO concentration in the test mixture eventually is 1%. The test mixtures are incubated at 37° C./5% CO2 for five days and, after the addition of 15 μl of Lu164 substrate (5 mg/ml coelenterazine dissolved in 30 μM glutathione/DMSO, 100 mM NaCl, 1M MES, 100 mM glutathione), evaluated by luminometry. The resulting values are in the region of 1 000 000 RLUs (relative light units) for the virus control and 300 to 400 RLUs for the cell control. The EC50 values of the test substances are determined as the concentration at which the virus replication measured in RLUs is 50% of the untreated infected cells.

The next experiment relates to HIV-1NL4-3 K103N-Y181C. The experiment in a line: Light assay with inhibitor-resistant HI reporter virus in MT4 7F2 cells. Conditions: Human immunodeficiency virus 1, read-out: EC50 (nM) MT4 7F2 cells HIV-1NL4-3 K103N-Y181C 2% FCS. It is filed as cell-based. The protocol:
as §1

Another experiment has as its system HIV-1LAI. The experiment in a line: H9 assay with wild-type HIV-1 (HIV-1LAI supernatant infection, AlamarBlue). The format is cell-based. Conditions: Human immunodeficiency virus 1, H9 cells, 10% FCS. The protocol: For the mixture for a 96-well MTP, 3 million PBLs are pelleted, suspended in 1 ml of RPMI 1640 medium/10% FCS and incubated together with a suitable amount of HIV-1LAI (NIH AIDS Research & Reference Reagent Program, Germantown, USA) at 37° C. for 2 hours (pellet infection). Unadsorbed viruses are subsequently washed out with PBS, and the infected cells are pelleted again and suspended in 18 ml of RPMI 1640 medium/10% FCS/interleukin-2 (40 U/ml). 180 μl thereof are pipetted into each well of a white 96-well MTP with 20 μl of test substance in suitable dilution. Alternatively, after preparation of the substance dilutions in the MTP, the HIV is pipetted in together with the cells and is not washed out again (supernatant infection). In order to avoid edge effects, the wells at the edge of the MTP are not used for substance dilutions. The second vertical row of the MTP contains only infected cells (virus control) and the eleventh vertical row only uninfected cells (cell control), in each case in RPMI 1640 medium/10% FCS/interleukin-2 (40 U/ml). The other wells of the MTP contain the compounds of the invention in various concentrations starting from the third vertical row, from which the test substances are diluted in 3-fold steps up to the tenth vertical row 3^7-fold. The test substances are dissolved in DMSO, whereby the final DMSO concentration in the test mixture eventually is 1%. The test mixtures are incubated at 37° C./5% CO2. After 5 and 7 days, 50 μl of cell-free supernatant are removed from each well to determine the amount of p24 present by means of a p24 ELISA (HIV-1 p24^CA Antigen Capture Assay Kit, NCI-Frederick Cancer Research and Development Center, Frederick, USA). From the resulting values of the photometric evaluation (450/620 nm) the EC50 values of the test substances are determined as the concentration at which the amount of p24 is 50% of the untreated infected cells.
Alternatively, H9 cells (ATCC, Wesel, Germany) are employed instead of PBLs for testing the test substances. H9 cells are incubated in RPMI 1640 medium with 2% or 10% FCS as a HIV-1LAI supernatant infection at 37° C./5% CO2, (20 μl of substance dilution and 80 μl of cells/virus per well) in accordance with the pattern described above for 5 days. Subsequently, 10 μl of AlamarBlue (Invitrogen, Karlsruhe, Germany) are added to each well, and the MTPs are incubated at 37° C. for 3 hours before the fluorimetric evaluation takes place (544/590 nm). The resulting values are about 40 000 for the untreated uninfected cells and about 7000 for the untreated infected cells. In the low concentration range, the EC50 values of the test substances are determined as the concentration at which the fluorescence is 50% of the untreated uninfected cells (in each case subtracting the values of the untreated infected cells). In addition, in the high concentration range, the CC50 values of the test substances are determined as the concentration at which the fluorescence is 50% of the untreated uninfected cells (in each case subtracting the values of the untreated infected cells).

For another experiment, the target named is T1, reverse transcriptase (Human immunodeficiency virus type 1 group M subtype B, UniProt P04585).
T1 construct: negative control (mixture without reverse transcriptase); purchased Roche Diagnostics GmbH, Mannheim, Germany
Put plainly: Biochemical Reverse Transcriptase Assay (Reverse Transcriptase Assay, colorimetric, Roche). The conditions noted are these: read-out: IC50 (nM) RT Assay. The protocol: The “Reverse Transcriptase Assay, colorimetric” (Roche Diagnostics GmbH, Mannheim, Germany) is used in accordance with the manufacturer's information. The test substances are dissolved in DMSO and are used in the test diluted in 5-fold steps (final DMSO concentration 1%). The resulting values of the photometric evaluation (405/492 nm) are less than 0.1 for the negative control (mixture without reverse transcriptase) and are in the region of 1.5 for the positive control (mixture without test substance). The IC50 values of the test substances are determined as the concentration of the test substance dilution at which the measured optical density is 50% of the positive control.

For `N#Cc1cc(-n2nc(C(=O)N3CNC(=O)C3)cc2-c2cccc(Cl)c2)ccc1F` [Example 53, 1-{[5-(3-Chlorophenyl)-1-(3-Cyano-4-fluorophenyl)-1H-pyrazol-3-yl]carbonyl}imidazolidin-4-one], the values for the EC50 in the experiment on HIV-1NL4-3 wt, with HIV-1NL4-3 K103N-Y181C and with HIV-1LAI were 0.3 nM, 33 nM and 1 nM, respectively. In addition, the IC50 – broadly, the concentration that inhibits the measured activity by half – on reverse transcriptase turned out to be 46 nM.
In the same order, the values of `N#Cc1cccc(-n2nc(C(=O)N3CNC(=O)C3)cc2-c2cccc(Cl)c2)c1` [Example 56, 3-{5-(3-Chlorophenyl)-3-[(4-oxoimidazolidin-1-yl)carbonyl]-1H-pyrazol-1-yl}benzenecarbonitrile] are 0.03 nM, 12 nM, 0.1 nM and 14 nM.
On the same counts, the results for `N#Cc1cccc(-n2nc(C(=O)N3CNC(=O)C3)cc2-c2cc(F)cc(Cl)c2)c1` [Example 59] are 0.2 nM, 10 nM, 1 nM and 8 nM.
On the same counts, the results for `N#Cc1cc(-n2nc(C(=O)N3CNC(=O)C3)cc2-c2cc(F)cc(Cl)c2)ccc1F` [Example 60, 5-{5-(3-Chloro-5-fluorophenyl)-3-[(4-oxoimidazolidin-1-yl)carbonyl]-1H-pyrazol-1-yl}-2-fluorobenzenecarbonitrile] are 0.1 nM, 4 nM, 0.9 nM and 9 nM.
Regarding `N#Cc1cc(F)cc(-c2cc(C(=O)N3CNC(=O)C3)nn2-c2cccc(Cl)c2)c1` [Example 61, 3-{1-(3-Chlorophenyl)-3-[(4-oxoimidazolidin-1-yl)carbonyl]-1H-pyrazol-5-yl}-5-fluorobenzenecarbonitrile], the figures for the 50% effective concentration (EC50) with HIV-1NL4-3 wt, with HIV-1NL4-3 K103N-Y181C and with HIV-1LAI were 1 nM, 80 nM and 3 nM, respectively. Also, the IC50 on reverse transcriptase is 35 nM.
In the same order, the values of `N#Cc1cc(F)cc(-c2cc(C(=O)N3CNC(=O)C3)nn2-c2ccc(F)c(Cl)c2)c1` [Example 62, 3-{1-(3-Chloro-4-fluorophenyl)-3-[(4-oxoimidazolidin-1-yl)carbonyl]-1H-pyrazol-5-yl}-5-fluorobenzenecarbonitrile] are 2 nM, 63 nM, 9 nM and 49 nM.
On the same counts, the results for `N#Cc1cc(F)cc(-c2cc(C(=O)N3CNC(=O)C3)nn2-c2ccc(F)c(C#N)c2)c1` [Example 63, 5-{5-(3-Cyano-5-fluorophenyl)-3-[(4-oxoimidazolidin-1-yl)carbonyl]-1H-pyrazol-1-yl}-2-fluorobenzenecarbonitrile] are 20 nM, 237 nM, 150 nM and 102 nM.
In the same order, the values of `N#Cc1cc(F)cc(-c2cc(C(=O)N3CNC(=O)C3)nn2-c2cccc(C#N)c2)c1` [Example 64, 3-{1-(3-Cyanophenyl)-3-[(4-oxoimidazolidin-1-yl)carbonyl]-1H-pyrazol-5-yl}-5-fluorobenzenecarbonitrile] are 5 nM, 250 nM, 100 nM and 25 nM.
